Patent US20070225518A1, “5-Aminolevulinic acid salts and their use” (priority 2006, published 2007)
“Also recorded” adds a separate entry of the source.

Tests used:
[1] = test system: Friend erythroleukemia cells (FLC); assay: PpIX formation in FLC by HPLC analysis of extracted porphyrins; type: cell-based; conditions: 0.1 mg/ml, 4 h, retention time typical of PpIX
Procedure: (§1) Cell culture. Friend erythroleukemia cells (FLC) and B16 melanoma cells were grown in a DMEM medium and RPMI 1640, respectively, (Biological Industries, Beit-Haemek, Israel), supplemented with 10% fetal calf serum and antibiotics, on tissue culture plates (Corning, Cambridge, Mass., USA) and incubated at 37° C. in a humidified atmosphere with 8% CO2. The cells were re-cultured twice a week.
(§2) Extraction of porphyrins from cells. FLC were incubated with 0.1 mg/ml ALA-HCl, AN 301, or AN 302 for 4 h. The cells were then washed and suspended in 750 μl glacial acetic acid. The cells were then sonicated on ice, at an amplitude of 1-2, three times for 45 sec, with 15 sec between successive sonications. Following the sonication, the lysate was transferred to glass test tubes containing 2.25 ml ethyl acetate, vigorously vortexed and centrifuged for 15 min at 3000 rpm. 2.6 ml of the supernatant were then transferred to glass test tubes containing 500 μl/1000 μl 1 M HCl and incubated overnight at 4° C. in the dark. Two phases formed, a lower inorganic phase and an upper organic phase containing the porphyrins. 300-700 μl from the organic phase was carefully removed with a Pasteur pipet. The porphyrins were then examined by HPLC and by spectroscopy.
High pressure liquid chromatograph [HPLC] analysis of porphyrins. Extracted porphyrins were purified by HPLC on an Apex Presil C18 8μ column (Jones, Chromatography, Lakewood, Colo.) using a 0-50% linear gradient aetonitrile (+0.1% trifluoroacetic acid) over 40-min elution at 47% acetonitrile.

[2] = test system: Friend erythroleukemia cells (FLC); assay: PpIX formation in FLC by fluorescence spectroscopy of extracted porphyrins; type: cell-based; conditions: 0.1 mg/ml, 4 h, excitation 410 nm, characteristic major peak at 633
Procedure: as §1, §2
Fluorometry of porphyrins. Fluorescence spectroscopy of the extrated porphyrins was examined using a SLM-Aminco spectrometer. Emission spectra were recorded following excitation at 410 nm.

[3] = test system: Friend erythroleukemia cells (FLC); assay: Flow cytometry for cellular PpIX after uptake of ALA salt; type: cell-based; conditions: stock solutions in H2O, PEG, buffer pH7
Procedure: as §1
(§3) Flow cytometry for cellular PpIX. […] After the incubation, the cells were washed with Ca^+2—Mg+^2 free PBS and scraped off with a rubber policeman. After a 10 min centrifugation at 1100 RPM, the supernatant was decanted and the pellet was resuspended in 0.5 ml Ca^+2—Mg^+2 free PBS. The cell suspension was filtered and measured using a Fluorescence Activated Cell Sorter (Becton Dickinson FACS Calibur, Mountain View, Calif., USA). 10,000 cells were measured in each sample using an excitation wavelength of 488 nm, and emission >600 nm, respectively.
. Stock solutions of the ALA salt were made up in (a) H2O, (b) PEG, and (c) buffer pH7. […]. The ALA salt was then presented to the cells, and biosynthesis of PpIX was determined by flow cytometry. In controls (d) no ALA salt was presented to the cells. Typical results are shown in FIG. 3 in which the horizontal axis is florescence intensity (in arbitrary units), and the vertical axis is the number of cells having a given intensity level. […]

[4] = test system: Friend erythroleukemia cells (FLC); assay: Stability of stored ALA salt solutions, read out as porphyrin formation in FLC by flow cytometry; type: cell-based; conditions: for Stability of solutions on storage (porphyrin formation in cells): 0.1 mg/ml, 7 days at 4° C. and at 37° C.; for Stability in aqueous and non-aqueous media: aqueous as well as non-aqueous media such as PEG
Procedure: as §3
. […] (a), 37° C. (b), or after no storage (c). In controls (d), no ALA salt was presented to the cells. The cells were then examined for the presence of PpIX by flow cytometry at […]. […]

B16 melanoma cells = assay: ALA treatment, photosensitization and MTT assay; type: cell-based; conditions: 0.6 mM, 4 hr, irradiation 360-410 nm, MTT after 24 hr
Procedure: as §1
ALA treatment and photosensitization. […] At the end of the incubation period, the cells were irradiated using a Vilber Lourmat lamp, VL-206BL, delivering a power density of 22.5 mW at 360-410 nm. Light intensity was measured with a Nova photometer (Ophir Optronics, Jerusalem).
MTT assay. The effect of PDT on cell viability was measured after 24 hr. by a modified MTT assay which is based on the ability of live cells to cleave the tetrazolium ring to a molecule that absorbs at 590 nm in active mitochondria (Mosmann, 1983). 2×10^3 cells were grown in 96-well plates. The growth medium was replaced and 20 μl MTT (3-(4,5-dimethylthiazol-2-yl)-2,5-diphenyl tetrazolium bromide), 5 mg/ml PBS (Sigma, Chemical Co, St. Louis, Mo., USA), were added to each well. The cells were further incubated at 37° C. for 2 h. For lysis of the cells, N,N-dimethyformamide was added to the media for 5 hours and absorbance was then measured at 590 nm.

[5] = background statement, cited from earlier work
[6] = stock solution stored 7 days, 4° C.
[7] = stock solution stored 7 days, 37° C.

SMILES	PpIX formation in the cells as determined by HPLC [1]	PpIX formation in the cells by spectroscopy [2]	formation of PpIX inside the cells by flow cytometry [3]	Stability of solutions on storage (porphyrin formation in cells) ([4]; benzenesulfonate)	Stability in aqueous and non-aqueous media [4]	porphyrin formation in FLC by flow cytometry [4, 6]	porphyrin formation in FLC by flow cytometry [4, 7]	porphyrin formation in FLC by flow cytometry ([4]; stock solution, storage time 0)	Cell death / viability (MTT activity) following illumination (B16 melanoma cells)	Solubility in stock solution solvents (H2O, PEG, and buffer pH7)	Lipid solubility PEG (PEG)	Solubility in aqueous and non-aqueous media (aqueous as well as non-aqueous media such as PEG)	Stability of solutions on storage (porphyrin formation in cells) [4]	Solubility in aqueous media ([5]; aqueous media)	Solubility in organic solvents including polyethylene glycol (PEG) ([5]; organic solvents including PEG)
NCC(=O)CCC(=O)O.O=S(=O)(O)c1ccccc1 [AN-301, 5-Amino4-oxopentanoic acid benzenesulfonate]	same porphyrin (PpIX) was generated	same porphyrin product was generated	leads to the formation of PpIX inside the cells	stable; also recorded: retained significant activity	stable	39 arbitrary units	39 arbitrary units	57 arbitrary units	as effective as ALA-HCl in causing cell death	soluble in each of these three solvents	soluble in PEG	soluble			
Cl.NCC(=O)CCC(=O)O [ALA-HCl, reference compound]	same porphyrin (PpIX) was generated	same porphyrin product was generated				3.5 arbitrary units	3.5 arbitrary units	60 arbitrary units					completely degraded	soluble	insoluble
NCC(=O)CCC(=O)O.O=S(=O)(O)c1ccc2ccccc2c1 [AN-302, 5-Amino-4-oxopentanoic acid 2-naphtylsulfonate]					stable										
NCC(=O)CCC(=O)O [AN-302, 5-Amino-4-oxopentanoic acid 2-naphtylsulfonate]	same porphyrin (PpIX) was generated	same porphyrin product was generated	leads to the formation of PpIX inside the cells			23 arbitrary units	29 arbitrary units	49 arbitrary units	as effective as ALA-HCl in causing cell death				stable; also recorded: retained significant activity		
